We go through two substances from article PMC9404989, “Design and Evaluation of Short Bovine Lactoferrin-Derived Antimicrobial Peptides against Multidrug-Resistant Enterococcus faecium” (Antibiotics, 2022).

“And” between values parts separate entries of the source, which are not always exact repeats. Equal entries are not always repeated. “Also recorded” adds a separate entry of the source. No end group written: not given here.

The test system of test [1] is E. faecium strain C68 on porcine skin. Put plainly: Ex vivo porcine skin infection assay. The settings on record: 1 × 10^6 CFU, 4 h treatment. Further details: species or system Enterococcus faecium. The text has this: We evaluated the efficacy of designed lactoferrin AMPs in an ex vivo porcine skin model previously described with minor modifications. We first cleaned the shaved porcine skin (Fisher Scientific, Hampton, NH, USA) with 70% ethanol and then water, and glued polyethylene tubing (5 mm) (Nalgene VWR 228-0170, Radnor, PA, USA) to the skin samples with cyanoacrylate glue (Fisher Scientific, Hampton, NH, USA). Using disposable razors, we cut each piece of skin glued to the tube and inserted it into a 12-well tissue culture plate (Falcon, Cat No. 353182). We infected each skin with 1 × 10^6 CFU of exponential or persister E. faecium strain C68 cells in a total volume of 10 µL. Following an incubation of 1 h at 37 °C, we treated the skin with 50 µL with 5L and 6L at concentrations of 10× or 1× MIC. After an additional 4 h of incubation at 37 °C, we washed each tubing well with 250 µL of PBS (pH 7.4) containing 0.05% Triton X-100 to remove bacteria. After serially diluting the bacterial sample, we counted their CFUs.

For test [2], the system named is E. faecium strain C68 established biofilms. Format: cell-based, Enterococcus faecium. The settings on record: for established biomass reduced: at 32 µg/mL, 24 h established biofilms. The protocol:
We prepared exponential cultures of E. faecium strain C68 (adjusted to 1 × 10^8 CFU/mL) in BHI media (supplemented with 0.2% glucose) from overnight grown cultures. We added 100 µL of the bacterial culture to wells of flat-bottomed 96-well polystyrene microtiter plates (Cat No. 3595, Corning, NY, USA). We then incubated the plates at 37 °C for 24 h in static conditions to allow biofilm formation. After incubation, we carefully pipetted out the media and washed the wells with PBS (Gibco, Waltham, MA, USA) to remove loosely attached planktonic cells. We treated the established biofilms in each well with 10 µL of serially diluted 10× peptide solution, followed by the addition of 90 μL of BHI media (supplemented with 0.2% glucose). The plates were incubated for another 24 h at 37 °C before processing for biomass and live-cell contents. We quantitated the concentration of peptide that disrupts 50% of established biofilms (MBEC50).

The subject of test [3] is drug-resistant E. faecium clinical isolates. Format: cell-based, Enterococcus faecium. The settings on record: strains D14, D24, D25, D29, C68 and WC176. As for the experimental part: (§1) To determine the MICs of peptides, we used the broth microdilution method described by the Clinical and Laboratory Standards Institute. We made serial dilutions of 10× concentration (10 µL) for each peptide in duplicates in 96-well plates (Cat No. 3595, Corning, New York, NY, USA). We added 90 µL of logarithmic-phase bacteria at 5 × 10^5 CFU/mL (in BHI media) to the peptides and then incubated the plates at 37 °C for 18 h. We measured the OD600 absorbance readings using the Spectra Max i3x spectrophotometer (Molecular Devices, San Jose, CA, USA) and determined the MIC as the peptide concentration that inhibits the growth of bacteria.

Another test has as its system E. faecalis MMH594. Put plainly: microbe, parasite or virus in culture. To be noted: MMH594, 18 h. Format: cell-based. As for the experimental part: as §1
The next test concerns E. faecalis V583. The experiment in a line: microbe, parasite or virus in culture. Format: cell-based. The settings on record: V583, 18 h. The protocol: as §1
For another test, the system named is E. faecalis OG1RF. The experiment in a line: MIC assay, E. faecalis OG1RF. Format: cell-based. To be noted: rifampin and fusidic acid resistant. As for the experimental part:
as §1

For test [4], the system named is E. faecium C68 biofilm formation. The experiment in a line: Prevention of E. faecium biofilm formation (XTT, crystal violet). The settings on record: for biomass depleted / biofilm formation inhibited: at 32 µg/mL, biofilm formation stage. Format: cell-based, Enterococcus faecium. As for the experimental part:
We evaluated the ability of the lactoferrin-derived peptides to inhibit biofilm formation following an established protocol with modifications. In short, we prepared exponential cultures of E. faecium C68 (adjusted to OD600 = 0.01) in BHI media (supplemented with 0.2% glucose) from overnight grown cultures. We added 90 µL of the bacterial culture to 10 µL of serially diluted 10× peptide solution in flat-bottomed 96-well polystyrene microtiter plates (Cat No. 3595, Corning, NY, USA) and then incubated the plates at 37 °C for 24 h. We considered media containing bacteria and water as the positive control, while media with water served as the negative control. After incubation, we carefully pipetted out the media and washed the wells with PBS (Gibco, Waltham, MA, USA) to remove loosely attached planktonic cells. We quantified the biomass by staining the biofilms with crystal violet following an established protocol and quantitated the concentration of peptide that inhibits 50% of biofilm formation (MBIC50). Furthermore, we measured the live cell count of the biofilms using XTT [2,3-bis(2-methyloxy-4-nitro-5-sulfophenyl)-2H-tertazolium-5-carboxanilide] dye (ATCC, Manassas, VA, USA). We calculated the percentage of biofilm growth by assuming that there was 100% biofilm growth in wells with bacteria without peptide treatment.

Test [5] deals with E. faecium strain C68 exponential cells. Put plainly: Exponential cell time-kill assay. Format: cell-based, Enterococcus faecium. The settings on record: 10× MIC, PBS. As for the experimental part:
For the generation of antibiotic-induced persister cells, we followed an established protocol. In brief, 25 mL of E. faecium strain C68 culture was grown to the stationary phase and then treated with gentamicin at 400 μg/mL for 5 h. We then disposed of the antibiotic-containing media and regrew the bacteria for another 18 h in fresh media. To produce stable persister cells, we repeated the cycle of antibiotic exposure and regrowth five times. The bacteria culture was then washed with the same volume of phosphate-buffered saline (PBS) 3× times and adjusted to 1 × 10^7 CFU/mL in PBS. For killing kinetics of the persister cells, we added 1 mL of the cell suspension to the wells of a 2 mL deep well assay block (Cat No. 3960, Corning, NY, USA) containing 10× MICs of 5L and 6L and incubated them at 37 °C, with shaking at 225 rpm. At specific times (0, 15, 30, 60, and 120 min), we collected 20 μL samples, diluted them serially, and then plated them on tryptic soy agar (TSA) (BD Difco, Franklin Lakes, NJ, USA) plates for 18 h at 37 °C for colony counting. We performed the experiments in duplicate. As a comparison, we prepared the exponential cells of E. faecium strain C68 in PBS and analyzed their killing kinetics in the same manner as described for persister cells.

Where [6] appears, read: strain C68 established biofilms, 24 h.

For RRWLWLRRWLWR-NH2 [Peptide 5L], in test [1], the “bacterial load reduction, exponential cells, 1× MIC” value is on record as 1 log; the “bacterial load reduction, persister cells, 1× MIC” value turned out to be 1 log; the “bacterial load, exponential cells, 10× MIC” value was “effectively eliminated almost all exponential cells”; the “bacterial load, persister cells, 10× MIC” value is recorded as “effectively eliminated all; also recorded: completely eliminated persister cells”. Also, the established biomass reduced in test [2] amounted to 75%. Further, in test [2] (setting [6]), the “MBEC50 (established biomass)” value is reported as 16 µg/mL and the “live bacteria killed within matured biofilm matrix” value stood at 50%. Further, the “MIC range against clinical isolates of E. faecium” value in test [3] lay in the range of 4 to 16 µg/mL. Also, the “MIC E. faecalis MMH594” value with E. faecalis MMH594 was greater than 32 µg/mL. In addition, the “MIC E. faecalis V583” value in the test on E. faecalis V583 was greater than 32 µg/mL. Further, the “MIC E. faecalis OG1RF” value in the test on E. faecalis OG1RF is greater than 32 µg/mL. The “biomass depleted / biofilm formation inhibited” value in test [4] came out at 90%. Moreover, in test [5], the “time to eliminate all 10^7 CFU of exponential cells” value is recorded as 120 min.

Consider RRWLWRLRWLWR-NH2 [Peptide 6L], for which, in test [1], the “bacterial load reduction, exponential cells, 1× MIC” value was 1.2 logs; the “bacterial load reduction, persister cells, 1× MIC” value was determined as 1 log; the “bacterial load, exponential cells, 10× MIC” value was “effectively eliminated almost all exponential cells”; the “bacterial load, persister cells, 10× MIC” value was “completely eliminated persister cells”. In test [2], the established biomass reduced came out at 75%. Further, the “MBEC50 (established biomass)” value in test [2] (setting [6]) turned out to be 16 µg/mL. Besides, in test [3], the “MIC range against clinical isolates of E. faecium” value is 4 to 16 µg/mL. In addition, the “MIC E. faecalis MMH594” value against E. faecalis MMH594 was greater than 32 µg/mL. The “MIC E. faecalis V583” value in the test with E. faecalis V583 is greater than 32 µg/mL. Further, the “MIC E. faecalis OG1RF” value against E. faecalis OG1RF was greater than 32 µg/mL. For the same substance, in test [4] (XTT, 24 h, BHI + 0.2% glucose), the “concentration killing 50% of live bacterial cells during biofilm formation stage” value amounted to 1.2 µg/mL. The “biomass depleted / biofilm formation inhibited” value in test [4] was 90% and 92%. In addition, the “time to eliminate all 10^7 CFU of exponential cells” value in test [5] was 60 min.
